Source: patent publication US8758816B2, “Compositions comprising azelastine and methods of use thereof” (priority 2004, dated 2014)
Counter-ions that a name gives are not always drawn.

Tested on: patients with seasonal allergic rhinitis (SAR)
Assay: MP 428 study: individual symptom severity scores (runny nose, itchy nose, sneezing, congestion; 0-3 scale)
Assay type: in vivo, human
Conditions: Intent-to-Treat Population
Protocol: A two-week, randomized, double-blind study, which evaluated the effects of the co-administration of ASTELIN® (azelastine hydrochloride (HCl)) and FLONASE® (fluticasone propionate) compared to either product alone in patients with seasonal allergic rhinitis (SAR) was conducted during the 2006 Texas mountain cedar season. After a 5-day placebo lead-in period, 151 patients with moderate-to-severe allergic rhinitis symptoms were randomized to either: (1) (49 total patients) ASTELIN® (azelastine hydrochloride (HCl)) plus placebo saline nasal spray 2 sprays per nostril, 15 minutes apart, twice daily (AM & PM); (2) (50 total patients) FLONASE® (fluticasone propionate) plus placebo saline nasal spray, 2 sprays per nostril, 15 minutes apart, once daily (AM) and two sessions of placebo saline nasal spray, 2 sprays per nostril, 15 minutes apart (PM); or (3) (52 total patients) the co-administration of ASTELIN® (azelastine hydrochloride (HCl)) 2 sprays per nostril plus FLONASE® (fluticasone propionate) 2 sprays per nostril (AM), 15 minutes apart, and ASTELIN® (azelastine hydrochloride (HCl)) 2 sprays per nostril plus placebo saline nasal spray, 15 minutes apart, (PM) for a 2-week double-blind treatment period.
The primary efficacy variable was the change from baseline in the Total Nasal Symptom Score (TNSS), which comprised sneezing, itchy nose, runny nose, and nasal congestion (individual symptoms scores were assigned a value between 0 and 3, where 0=no symptoms and 3=severe symptoms). This study was not statistically designed to assess the differences between ASTELIN® and FLONASE®.
The results of the clinical trial are summarized and presented in Appendix A hereinbelow and in FIGS. 1-6. […] FIGS. 2-5 show the mean improvement in severity score (0-3 scale) from baseline for the symptoms of runny nose, itchy nose, sneezing and congestion, respectively.

Compound: CN1CCCC(n2nc(Cc3ccc(Cl)cc3)c3ccccc3c2=O)CC1 (racemic) [Azelastine, (±)-1-(2H)-phthalazinone, 4-[(4-chlorophenyl)methyl]-2-(hexahydro-1-methyl-1H-azepin-4-yl)-, mono-hydrochloride]
- Change from Baseline in AM and PM Combined Nasal Symptom Score: Congestion, LS Mean (Day 9): −1.20
- Change from Baseline in AM and PM Combined Nasal Symptom Score: Congestion, Mean (Day 9): −1.23
- Change from Baseline in AM and PM Combined Nasal Symptom Score: Congestion, Median (Day 9): −1.00
- Change from Baseline in AM and PM Combined Nasal Symptom Score: Itchy Nose, LS Mean (Day 9): −1.29
- Change from Baseline in AM and PM Combined Nasal Symptom Score: Itchy Nose, Mean (Day 9): −1.27
- Change from Baseline in AM and PM Combined Nasal Symptom Score: Itchy Nose, Median (Day 9): −0.93
- Change from Baseline in AM and PM Combined Nasal Symptom Score: Runny Nose, LS Mean (Day 9): −1.14
- Change from Baseline in AM and PM Combined Nasal Symptom Score: Runny Nose, Mean (Day 9): −1.15
- Change from Baseline in AM and PM Combined Nasal Symptom Score: Runny Nose, Median (Day 9): −0.90
- Change from Baseline in AM and PM Combined Nasal Symptom Score: Sneezing, LS Mean (Day 9): −1.72
- Change from Baseline in AM and PM Combined Nasal Symptom Score: Sneezing, Mean (Day 9): −1.73
- Change from Baseline in AM and PM Combined Nasal Symptom Score: Sneezing, Median (Day 9): −1.67
- Percent Change from Baseline in AM and PM Combined Nasal Symptom Score: Congestion, LS Mean (Day 9): −21.68%
- Percent Change from Baseline in AM and PM Combined Nasal Symptom Score: Congestion, Mean (Day 9): −22.05%
- Percent Change from Baseline in AM and PM Combined Nasal Symptom Score: Congestion, Median (Day 9): −18.64%
- Percent Change from Baseline in AM and PM Combined Nasal Symptom Score: Itchy Nose, LS Mean (Day 9): −27.69%
- Percent Change from Baseline in AM and PM Combined Nasal Symptom Score: Itchy Nose, Mean (Day 9): −26.97%
- Percent Change from Baseline in AM and PM Combined Nasal Symptom Score: Itchy Nose, Median (Day 9): −21.57%
- Percent Change from Baseline in AM and PM Combined Nasal Symptom Score: Runny Nose, LS Mean (Day 9): −23.07%
- Percent Change from Baseline in AM and PM Combined Nasal Symptom Score: Runny Nose, Mean (Day 9): −23.25%
- Percent Change from Baseline in AM and PM Combined Nasal Symptom Score: Runny Nose, Median (Day 9): −21.74%
- Percent Change from Baseline in AM and PM Combined Nasal Symptom Score: Sneezing, LS Mean (Day 9): −36.31%
- Percent Change from Baseline in AM and PM Combined Nasal Symptom Score: Sneezing, Mean (Day 9): −36.04%
- Percent Change from Baseline in AM and PM Combined Nasal Symptom Score: Sneezing, Median (Day 9): −35.48%
- Change from Baseline in AM and PM Combined Nasal Symptom Score: Congestion, LS Mean (Day 10): −1.12
- Change from Baseline in AM and PM Combined Nasal Symptom Score: Congestion, Mean (Day 10): −1.17
- Change from Baseline in AM and PM Combined Nasal Symptom Score: Congestion, Median (Day 10): −1.00
- Change from Baseline in AM and PM Combined Nasal Symptom Score: Itchy Nose, LS Mean (Day 10): −1.35
- Change from Baseline in AM and PM Combined Nasal Symptom Score: Itchy Nose, Mean (Day 10): −1.35
- Change from Baseline in AM and PM Combined Nasal Symptom Score: Itchy Nose, Median (Day 10): −1.10
- Change from Baseline in AM and PM Combined Nasal Symptom Score: Runny Nose, LS Mean (Day 10): −1.11
- Change from Baseline in AM and PM Combined Nasal Symptom Score: Runny Nose, Mean (Day 10): −1.13
- Change from Baseline in AM and PM Combined Nasal Symptom Score: Runny Nose, Median (Day 10): −0.83
- Change from Baseline in AM and PM Combined Nasal Symptom Score: Sneezing, LS Mean (Day 10): −1.70
- Change from Baseline in AM and PM Combined Nasal Symptom Score: Sneezing, Mean (Day 10): −1.71
- Change from Baseline in AM and PM Combined Nasal Symptom Score: Sneezing, Median (Day 10): −1.75
- Percent Change from Baseline in AM and PM Combined Nasal Symptom Score: Congestion, LS Mean (Day 10): −20.32%
- Percent Change from Baseline in AM and PM Combined Nasal Symptom Score: Congestion, Mean (Day 10): −20.94%
- Percent Change from Baseline in AM and PM Combined Nasal Symptom Score: Congestion, Median (Day 10): −16.67%
- Percent Change from Baseline in AM and PM Combined Nasal Symptom Score: Itchy Nose, LS Mean (Day 10): −29.83%
- Percent Change from Baseline in AM and PM Combined Nasal Symptom Score: Itchy Nose, Mean (Day 10): −29.56%
- Percent Change from Baseline in AM and PM Combined Nasal Symptom Score: Itchy Nose, Median (Day 10): −21.57%
- Percent Change from Baseline in AM and PM Combined Nasal Symptom Score: Runny Nose, LS Mean (Day 10): −22.00%
- Percent Change from Baseline in AM and PM Combined Nasal Symptom Score: Runny Nose, Mean (Day 10): −22.22%
- Percent Change from Baseline in AM and PM Combined Nasal Symptom Score: Runny Nose, Median (Day 10): −16.67%
- Percent Change from Baseline in AM and PM Combined Nasal Symptom Score: Sneezing, LS Mean (Day 10): −41.13%
- Percent Change from Baseline in AM and PM Combined Nasal Symptom Score: Sneezing, Mean (Day 10): −40.82%
- Percent Change from Baseline in AM and PM Combined Nasal Symptom Score: Sneezing, Median (Day 10): −38.78%
- Change from Baseline in AM and PM Combined Nasal Symptom Score: Congestion, LS Mean (Day 11): −1.18
- Change from Baseline in AM and PM Combined Nasal Symptom Score: Congestion, Mean (Day 11): −1.23
- Change from Baseline in AM and PM Combined Nasal Symptom Score: Congestion, Median (Day 11): −0.92
- Change from Baseline in AM and PM Combined Nasal Symptom Score: Itchy Nose, LS Mean (Day 11): −1.39
- Change from Baseline in AM and PM Combined Nasal Symptom Score: Itchy Nose, Mean (Day 11): −1.37
- Change from Baseline in AM and PM Combined Nasal Symptom Score: Itchy Nose, Median (Day 11): −1.10
- Change from Baseline in AM and PM Combined Nasal Symptom Score: Runny Nose, LS Mean (Day 11): −1.35
- Change from Baseline in AM and PM Combined Nasal Symptom Score: Runny Nose, Mean (Day 11): −1.38
- Change from Baseline in AM and PM Combined Nasal Symptom Score: Runny Nose, Median (Day 11): −1.10
- Change from Baseline in AM and PM Combined Nasal Symptom Score: Sneezing, LS Mean (Day 11): −1.79
- Change from Baseline in AM and PM Combined Nasal Symptom Score: Sneezing, Mean (Day 11): −1.79
- Change from Baseline in AM and PM Combined Nasal Symptom Score: Sneezing, Median (Day 11): −1.55
- Percent Change from Baseline in AM and PM Combined Nasal Symptom Score: Congestion, LS Mean (Day 11): −20.72%
- Percent Change from Baseline in AM and PM Combined Nasal Symptom Score: Congestion, Mean (Day 11): −21.53%
- Percent Change from Baseline in AM and PM Combined Nasal Symptom Score: Congestion, Median (Day 11): −16.67%
- Percent Change from Baseline in AM and PM Combined Nasal Symptom Score: Itchy Nose, LS Mean (Day 11): −30.38%
- Percent Change from Baseline in AM and PM Combined Nasal Symptom Score: Itchy Nose, Mean (Day 11): −29.59%
- Percent Change from Baseline in AM and PM Combined Nasal Symptom Score: Itchy Nose, Median (Day 11): −22.33%
- Percent Change from Baseline in AM and PM Combined Nasal Symptom Score: Runny Nose, LS Mean (Day 11): −25.36%
- Percent Change from Baseline in AM and PM Combined Nasal Symptom Score: Runny Nose, Mean (Day 11): −25.83%
- Percent Change from Baseline in AM and PM Combined Nasal Symptom Score: Runny Nose, Median (Day 11): −21.57%
- Percent Change from Baseline in AM and PM Combined Nasal Symptom Score: Sneezing, LS Mean (Day 11): −43.40%
- Percent Change from Baseline in AM and PM Combined Nasal Symptom Score: Sneezing, Mean (Day 11): −42.70%
- Percent Change from Baseline in AM and PM Combined Nasal Symptom Score: Sneezing, Median (Day 11): −38.78%
- Change from Baseline in AM and PM Combined Nasal Symptom Score: Congestion, LS Mean (Day 12): −1.21
- Change from Baseline in AM and PM Combined Nasal Symptom Score: Congestion, Mean (Day 12): −1.27
- Change from Baseline in AM and PM Combined Nasal Symptom Score: Congestion, Median (Day 12): −1.00
- Change from Baseline in AM and PM Combined Nasal Symptom Score: Itchy Nose, LS Mean (Day 12): −1.33
- Change from Baseline in AM and PM Combined Nasal Symptom Score: Itchy Nose, Mean (Day 12): −1.33
- Change from Baseline in AM and PM Combined Nasal Symptom Score: Itchy Nose, Median (Day 12): −1.00
- Change from Baseline in AM and PM Combined Nasal Symptom Score: Runny Nose, LS Mean (Day 12): −1.22
- Change from Baseline in AM and PM Combined Nasal Symptom Score: Runny Nose, Mean (Day 12): −1.25
- Change from Baseline in AM and PM Combined Nasal Symptom Score: Runny Nose, Median (Day 12): −0.43
- Change from Baseline in AM and PM Combined Nasal Symptom Score: Sneezing, LS Mean (Day 12): −1.63
- Change from Baseline in AM and PM Combined Nasal Symptom Score: Sneezing, Mean (Day 12): −1.63
- Change from Baseline in AM and PM Combined Nasal Symptom Score: Sneezing, Median (Day 12): −1.73
